Patent publication US20260266848A1, “COMPOSITIONS AND METHODS FOR DIAGNOSING AND TREATING DYSTONIA” (Duke University, priority 2023, published 2026)

Test system: DYT-TOR1A MEF EVs
Test: Quantitative LC-MS/MS proteomics of EVs from drug-treated DYT-TOR1A MEF cultures (ritonavir, salubrinal)
Assay type: cell-based, mouse
[1] = DYT1/DYT1+Sal (inverse ratio), 20 μM, 24 h

## O=C(/C=C/c1ccccc1)NC(NC(=S)Nc1cccc2cccnc12)C(Cl)(Cl)Cl (stereo not drawn) [salubrinal]
20 μM, 24 h
  DYT disrupted proteins (n=363) with significant corrective effects of salubrinal: 13%
20 μM, 24 h, of 1974 proteins
  total EV proteins significantly modified by salubrinal: 9%
DYT1+Sal/DYT1, 20 μM, 24 h
  Acaa1a (ACAA1) EV abundance Log2_FC: −0.8007
  Ano6 (ANO6) EV abundance Log2_FC: −0.3535
  Ap1b1 (AP1B1) EV abundance Log2_FC: 0.5874
  Ar18b (ARL8B) EV abundance Log2_FC: −0.08283
  Bzw2 (BZW2) EV abundance Log2_FC: −0.03057
  Cryab (CRYAB) EV abundance Log2_FC: 1.025
  DIst (DLST) EV abundance Log2_FC: −0.5172
  Ehd4 (EHD4) EV abundance Log2_FC: −0.149
  Flna (FLNA) EV abundance Log2_FC: −0.07088
  Fscn1 (FSCN1) EV abundance Log2_FC: −0.1414
  Gart (GART) EV abundance Log2_FC: 0.05776
  Hist1h1b (H1-5) EV abundance Log2_FC: −0.1163
  Hnrnpc (HNRNPC) EV abundance Log2_FC: −0.2845
  Ipo9 (IPO9) EV abundance Log2_FC: 0.3059
  Jam3 (JAM3) EV abundance Log2_FC: −0.6132
  Lipg (LIPG) EV abundance Log2_FC: −0.4507
  Lrrc59 (LRRC59) EV abundance Log2_FC: −0.4226
  Mapk3 (MAPK3) EV abundance Log2_FC: 0.6764
  Mars (MARS1) EV abundance Log2_FC: −0.1637
  Mrc2 (MRC2) EV abundance Log2_FC: 0.01917
  Myh9 (MYH9) EV abundance Log2_FC: −0.2742
  Ndnf (NDNF) EV abundance Log2_FC: −0.5746
  Pcmt1 (PCMT1) EV abundance Log2_FC: 1.133
  Pi4ka (PI4KA) EV abundance Log2_FC: −1.039
  Pitpnb (PITPNB) EV abundance Log2_FC: 0.09822
  Prpsap2 (PRPSAP2) EV abundance Log2_FC: −0.0814
  Psmc5 (PSMC5) EV abundance Log2_FC: 0.4458
  Psmd12 (PSMD12) EV abundance Log2_FC: −0.203
  Psme4 (PSME4) EV abundance Log2_FC: −0.2099
  Ptma (PTMA) EV abundance Log2_FC: 1.235
  Rap2b (RAP2B) EV abundance Log2_FC: −0.3288
  Rbm3 (RBM3) EV abundance Log2_FC: 0.84
  Rhoa (RHOA) EV abundance Log2_FC: 0.2121
  Rpl10 (RPL10) EV abundance Log2_FC: −0.05107
  Rpl13a (RPL13A) EV abundance Log2_FC: −0.1384
  Rps13 (RPS13) EV abundance Log2_FC: 0.02541
  Sec31a (SEC31A) EV abundance Log2_FC: 0.1051
  Slc2a1 (SLC2A1) EV abundance Log2_FC: 0.1088
  Stom (STOM) EV abundance Log2_FC: 0.01864
  Tardbp (TARDBP) EV abundance Log2_FC: 0.4388
  Tgfb2 (TGFB2) EV abundance Log2_FC: 0.3062
  Tln1 (TLN1) EV abundance Log2_FC: −0.1915
  Tln2 (TLN2) EV abundance Log2_FC: −0.3236
  Tubb1 (TUBB1) EV abundance Log2_FC: −0.6949
  Usp7 (USP7) EV abundance Log2_FC: 1.365
  Wdr26 (WDR26) EV abundance Log2_FC: −0.03177
  Zyx (ZYX) EV abundance Log2_FC: −0.2196
[1]
  Acaa1a (ACAA1) EV abundance Log2_FC: 0.8007
  Ano6 (ANO6) EV abundance Log2_FC: 0.3535
  Ap1b1 (AP1B1) EV abundance Log2_FC: −0.5874
  Arl8b (ARL8B) EV abundance Log2_FC: 0.08283
  Bzw2 (BZW2) EV abundance Log2_FC: 0.03057
  Cryab (CRYAB) EV abundance Log2_FC: −1.025
  DIst (DLST) EV abundance Log2_FC: 0.5172
  Ehd4 (EHD4) EV abundance Log2_FC: 0.149
  Flna (FLNA) EV abundance Log2_FC: 0.07088
  Fscn1 (FSCN1) EV abundance Log2_FC: 0.1414
  Gart (GART) EV abundance Log2_FC: −0.05776
  Hist1h1b (H1-5) EV abundance Log2_FC: 0.1163
  Hnrnpc (HNRNPC) EV abundance Log2_FC: 0.2845
  Ipo9 (IPO9) EV abundance Log2_FC: −0.3059
  Jam3 (JAM3) EV abundance Log2_FC: 0.6132
  Lipg (LIPG) EV abundance Log2_FC: 0.4507
  Lrrc59 (LRRC59) EV abundance Log2_FC: 0.4226
  Mapk3 (MAPK3) EV abundance Log2_FC: −0.6764
  Mars (MARS1) EV abundance Log2_FC: 0.1637
  Mrc2 (MRC2) EV abundance Log2_FC: −0.01917
  Myh9 (MYH9) EV abundance Log2_FC: 0.2742
  Ndnf (NDNF) EV abundance Log2_FC: 0.5746
  Pcmt1 (PCMT1) EV abundance Log2_FC: −1.133
  Pi4ka (PI4KA) EV abundance Log2_FC: 1.039
  Pitpnb (PITPNB) EV abundance Log2_FC: −0.09822
  Prpsap2 (PRPSAP2) EV abundance Log2_FC: 0.0814
  Psmc5 (PSMC5) EV abundance Log2_FC: −0.4458
  Psmd12 (PSMD12) EV abundance Log2_FC: 0.203
  Psme4 (PSME4) EV abundance Log2_FC: 0.2099
  Ptma (PTMA) EV abundance Log2_FC: −1.235
  Rap2b (RAP2B) EV abundance Log2_FC: 0.3288
  Rbm3 (RBM3) EV abundance Log2_FC: −0.84
  Rhoa (RHOA) EV abundance Log2_FC: −0.2121
  Rpl10 (RPL10) EV abundance Log2_FC: 0.05107
  Rpl13a (RPL13A) EV abundance Log2_FC: 0.1384
  Rps13 (RPS13) EV abundance Log2_FC: −0.02541
  Sec31a (SEC31A) EV abundance Log2_FC: −0.1051
  Slc2a1 (SLC2A1) EV abundance Log2_FC: −0.1088
  Stom (STOM) EV abundance Log2_FC: −0.01864
  Tardbp (TARDBP) EV abundance Log2_FC: −0.4388
  Tgfb2 (TGFB2) EV abundance Log2_FC: −0.3062
  Tln1 (TLN1) EV abundance Log2_FC: 0.1915
  Tln2 (TLN2) EV abundance Log2_FC: 0.3236
  Tubb1 (TUBB1) EV abundance Log2_FC: 0.6949
  Usp7 (USP7) EV abundance Log2_FC: −1.365
  Wdr26 (WDR26) EV abundance Log2_FC: 0.03177
  Zyx (ZYX) EV abundance Log2_FC: 0.2196
DYT + Sal/DYT, 20 μM, 24 h
  Acaa1a (ACAA1) EV abundance Cohen's d: −0.1738
  Ano6 (ANO6) EV abundance Cohen's d: 0.1593
  Ap1b1 (AP1B1) EV abundance Cohen's d: −0.5479
  Ar18b (ARL8B) EV abundance Cohen's d: −0.5773
  Bzw2 (BZW2) EV abundance Cohen's d: 0.2815
  Cryab (CRYAB) EV abundance Cohen's d: 1.101
  DIst (DLST) EV abundance Cohen's d: −0.973
  Ehd4 (EHD4) EV abundance Cohen's d: −0.4717
  Flna (FLNA) EV abundance Cohen's d: 0.4828
  Fscn1 (FSCN1) EV abundance Cohen's d: 0.7138
  Gart (GART) EV abundance Cohen's d: 0.6261
  Hist1h1b (H1-5) EV abundance Cohen's d: 0.4792
  Hnrnpc (HNRNPC) EV abundance Cohen's d: −0.5111
  Ipo9 (IPO9) EV abundance Cohen's d: 0.1652
  Jam3 (JAM3) EV abundance Cohen's d: −0.5387
  Lipg (LIPG) EV abundance Cohen's d: 0.6163
  Lrrc59 (LRRC59) EV abundance Cohen's d: 0.4615
  Mapk3 (MAPK3) EV abundance Cohen's d: −0.3187
  Mars (MARS1) EV abundance Cohen's d: −0.2456
  Mrc2 (MRC2) EV abundance Cohen's d: 0.3301
  Myh9 (MYH9) EV abundance Cohen's d: −0.2884
  Ndnf (NDNF) EV abundance Cohen's d: −0.4227
  Pcmt1 (PCMT1) EV abundance Cohen's d: −0.2746
  Pi4ka (PI4KA) EV abundance Cohen's d: 0.7656
  Pitpnb (PITPNB) EV abundance Cohen's d: 0.6644
  Prpsap2 (PRPSAP2) EV abundance Cohen's d: −1.257
  Psmc5 (PSMC5) EV abundance Cohen's d: 1.22
  Psmd12 (PSMD12) EV abundance Cohen's d: 1.234
  Psme4 (PSME4) EV abundance Cohen's d: −0.3917
  Ptma (PTMA) EV abundance Cohen's d: 0.9729
  Rap2b (RAP2B) EV abundance Cohen's d: −0.249
  Rbm3 (RBM3) EV abundance Cohen's d: 0.2607
  Rhoa (RHOA) EV abundance Cohen's d: −0.6572
  Rpl10 (RPL10) EV abundance Cohen's d: −0.3597
  Rpl13a (RPL13A) EV abundance Cohen's d: −0.4797
  Rps13 (RPS13) EV abundance Cohen's d: −0.1409
  Sec31a (SEC31A) EV abundance Cohen's d: −0.2355
  Slc2a1 (SLC2A1) EV abundance Cohen's d: −0.3172
  Stom (STOM) EV abundance Cohen's d: −0.4048
  Tardbp (TARDBP) EV abundance Cohen's d: 0.4522
  Tgfb2 (TGFB2) EV abundance Cohen's d: −0.3293
  Tln1 (TLN1) EV abundance Cohen's d: 0.5665
  Tln2 (TLN2) EV abundance Cohen's d: 0.5488
  Tubb1 (TUBB1) EV abundance Cohen's d: 0.246
  Usp7 (USP7) EV abundance Cohen's d: 1.229
  Wdr26 (WDR26) EV abundance Cohen's d: −0.1895
  Zyx (ZYX) EV abundance Cohen's d: −0.5814
DYT-TOR1A MEF EVs, 20 μM each, 24 h
  Pearson r between ritonavir and salubrinal effects on putative DYT-TOR1A biomarker proteins: 0.47
DYT/DYT + Sal, 20 μM, 24 h
  Acaa1a (ACAA1) EV abundance Cohen's d: −0.1738
  Ano6 (ANO6) EV abundance Cohen's d: 0.1593
  Ap1b1 (AP1B1) EV abundance Cohen's d: −0.5479
  Arl8b (ARL8B) EV abundance Cohen's d: −0.5773
  Bzw2 (BZW2) EV abundance Cohen's d: 0.2815
  Cryab (CRYAB) EV abundance Cohen's d: 1.101
  DIst (DLST) EV abundance Cohen's d: −0.973
  Ehd4 (EHD4) EV abundance Cohen's d: −0.4717
  Flna (FLNA) EV abundance Cohen's d: 0.4828
  Fscn1 (FSCN1) EV abundance Cohen's d: 0.7138
  Gart (GART) EV abundance Cohen's d: 0.6261
  Hist1h1b (H1-5) EV abundance Cohen's d: 0.4792
  Hnrnpc (HNRNPC) EV abundance Cohen's d: −0.5111
  Ipo9 (IPO9) EV abundance Cohen's d: 0.1652
  Jam3 (JAM3) EV abundance Cohen's d: −0.5387
  Lipg (LIPG) EV abundance Cohen's d: 0.6163
  Lrrc59 (LRRC59) EV abundance Cohen's d: 0.4615
  Mapk3 (MAPK3) EV abundance Cohen's d: −0.3187
  Mars (MARS1) EV abundance Cohen's d: −0.2456
  Mrc2 (MRC2) EV abundance Cohen's d: 0.3301
  Myh9 (MYH9) EV abundance Cohen's d: −0.2884
  Ndnf (NDNF) EV abundance Cohen's d: −0.4227
  Pcmt1 (PCMT1) EV abundance Cohen's d: −0.2746
  Pi4ka (PI4KA) EV abundance Cohen's d: 0.7656
  Pitpnb (PITPNB) EV abundance Cohen's d: 0.6644
  Prpsap2 (PRPSAP2) EV abundance Cohen's d: −1.257
  Psmc5 (PSMC5) EV abundance Cohen's d: 1.22
  Psmd12 (PSMD12) EV abundance Cohen's d: 1.234
  Psme4 (PSME4) EV abundance Cohen's d: −0.3917
  Ptma (PTMA) EV abundance Cohen's d: 0.9729
  Rap2b (RAP2B) EV abundance Cohen's d: −0.249
  Rbm3 (RBM3) EV abundance Cohen's d: 0.2607
  Rhoa (RHOA) EV abundance Cohen's d: −0.6572
  Rpl10 (RPL10) EV abundance Cohen's d: −0.3597
  Rpl13a (RPL13A) EV abundance Cohen's d: −0.4797
  Rps13 (RPS13) EV abundance Cohen's d: −0.1409
  Sec31a (SEC31A) EV abundance Cohen's d: −0.2355
  Slc2a1 (SLC2A1) EV abundance Cohen's d: −0.3172
  Stom (STOM) EV abundance Cohen's d: −0.4048
  Tardbp (TARDBP) EV abundance Cohen's d: 0.4522
  Tgfb2 (TGFB2) EV abundance Cohen's d: −0.3293
  Tln1 (TLN1) EV abundance Cohen's d: 0.5665
  Tln2 (TLN2) EV abundance Cohen's d: 0.5488
  Tubb1 (TUBB1) EV abundance Cohen's d: 0.246
  Usp7 (USP7) EV abundance Cohen's d: 1.229
  Wdr26 (WDR26) EV abundance Cohen's d: −0.1895
  Zyx (ZYX) EV abundance Cohen's d: −0.5814
salubrinal
  proteins reduced in both mouse and human EVs whose abundance is modulated toward correction in DYT1 cells (and toward DYT1-like by ISRIB in WT cells): 4 of the 7
